Activity calls are given as the source filed them. No cut-off for these calls is given here.
How the values were obtained:
[1] = Toxicity in Balb/c nude mouse xenografted with human MV4-11 cells assessed as weight loss at 20 mg/kg, ip administered once a day for 20 days; format: organism-based; settings: in vivo, 480 h, time 20 day
MV4-11 [2] = assay: Induction of apoptosis in human MV4-11 cells assessed as necrotic cells at 0.1 nM incubated for 48 hrs by Annexin V-FITC/PI staining based flow cytometric analysis (reference value: 0.07 %); format: functional
[3] = AUC (0 to t) in ICR mouse at 20 mg/kg, IG administered via gavage and measured after 24 hrs by LC-MS analysis; format: ADME, organism-based; settings: in vivo, po
[4] = target: T1, Protein cereblon/Bromodomain-containing protein 9 (Homo sapiens, UniProt Q9H8M2+Q96SW2); assay: PROTAC activity at CRBN/BRD9 in human MV4-11 cells assessed as induction of BRD9 degradation at 0.33 nM by Western blot analysis relative to control; format: cell-based; settings: time 0.5-24 hrs
Target sequence in this assay (Q96SW2 whole entry, looked up): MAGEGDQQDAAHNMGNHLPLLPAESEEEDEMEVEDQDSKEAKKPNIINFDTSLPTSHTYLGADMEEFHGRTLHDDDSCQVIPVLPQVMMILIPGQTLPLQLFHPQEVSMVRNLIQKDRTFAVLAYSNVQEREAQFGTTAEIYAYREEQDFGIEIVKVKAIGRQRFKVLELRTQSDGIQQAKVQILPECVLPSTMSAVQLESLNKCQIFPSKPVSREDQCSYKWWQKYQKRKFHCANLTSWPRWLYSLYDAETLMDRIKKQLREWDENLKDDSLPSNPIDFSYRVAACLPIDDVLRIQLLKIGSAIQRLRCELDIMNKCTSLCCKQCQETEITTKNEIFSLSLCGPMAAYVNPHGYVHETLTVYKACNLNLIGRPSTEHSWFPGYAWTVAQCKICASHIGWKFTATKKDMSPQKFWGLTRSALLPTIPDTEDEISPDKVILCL
Target sequence in this assay (Q9H8M2 whole entry, looked up): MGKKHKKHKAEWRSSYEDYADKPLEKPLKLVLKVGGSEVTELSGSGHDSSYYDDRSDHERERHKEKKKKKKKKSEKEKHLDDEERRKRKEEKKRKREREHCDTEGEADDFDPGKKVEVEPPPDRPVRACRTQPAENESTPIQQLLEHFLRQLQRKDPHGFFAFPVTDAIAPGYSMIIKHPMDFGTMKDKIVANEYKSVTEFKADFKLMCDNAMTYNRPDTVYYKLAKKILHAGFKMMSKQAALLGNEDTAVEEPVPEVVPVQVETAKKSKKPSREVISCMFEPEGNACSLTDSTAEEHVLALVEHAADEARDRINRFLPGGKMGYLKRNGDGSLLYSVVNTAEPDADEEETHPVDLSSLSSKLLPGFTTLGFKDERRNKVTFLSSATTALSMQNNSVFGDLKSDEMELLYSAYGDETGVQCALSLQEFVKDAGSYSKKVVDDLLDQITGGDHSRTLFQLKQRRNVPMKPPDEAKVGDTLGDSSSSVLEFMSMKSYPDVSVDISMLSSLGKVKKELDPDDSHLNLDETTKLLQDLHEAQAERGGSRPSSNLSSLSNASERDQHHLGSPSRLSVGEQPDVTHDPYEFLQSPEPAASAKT

MV4-11 [5] = assay: Cell cycle arrest in human MV4-11 cells assessed as accumulation of cells at G1 phase at 0.01 to 10 nM incubated for 24 hrs by PI staining based flow cytometric analysis; format: functional; settings: dose 0.01-10 nM
Mus musculus [6] = assay: Upregulation of BRD7 expression in Balb/c nude mouse tumor xenografted with human MV4-11 cells at 20 mg/kg, ip administered once daily for 20 days by Western blot analysis; format: functional, organism-based; settings: time 20.0 day
MV4-11 [7] = assay: Downregulation of AXIN2 mRNA expression level in human MV4-11 cells at 0.1 to 10 nM measured after 24 to 48 hrs by qPCR analysis; format: functional, cell-based; settings: dose 0.1-10 nM, time 24-48 hrs
MV4-11 [8] = assay: Antiproliferative activity against human MV4-11 cells assessed as inhibition of cell growth incubated for 7 days by MTS reagent based assay; format: functional; settings: MV4-11, 168 h
MV4-11 [9] = assay: Induction of BRD4 degradation in human MV4-11 cells at 100 nM by Western blot analysis; format: cell-based
MV4-11 [10] = assay: Induction of apoptosis in human MV4-11 cells assessed as late apoptotic cells at 0.1 nM incubated for 48 hrs by Annexin V-FITC/PI staining based flow cytometric analysis (reference value: 0.91 %); format: functional
[11] = Toxicity in Balb/c nude mouse xenografted with human OCI-Ly10 cells assessed as mortality at 30 mg/kg, po administered once daily for 18 days; format: organism-based; settings: in vivo, 432 h, time 18 day
MOLM-13 = assay: Antiproliferative activity against human MOLM-13 cells assessed as inhibition of cell growth incubated for 7 days by MTS reagent based assay; format: functional; settings: MOLM-13, 168 h
MV4-11 [12] = assay: Induction of apoptosis in human MV4-11 cells assessed as necrotic cells at 10 nM incubated for 48 hrs by Annexin V-FITC/PI staining based flow cytometric analysis (reference value: 0.07 %); format: functional
OCI-Ly10 [13] = assay: Antitumor activity against human OCI-Ly10 cells xenografted in Balb/c nude mouse assessed as test to control ratio at 30 mg/kg, po administered once daily for 18 days relative to control; format: functional; settings: time 18 day
MV4-11 [14] = assay: Upregulation of C-myc mRNA expression level in human MV4-11 cells at 0.1 to 10 nM measured after 24 to 48 hrs by qPCR analysis; format: functional, cell-based; settings: dose 0.1-10 nM, time 24-48 hrs
MV4-11 [15] = assay: Induction of apoptosis in human MV4-11 cells assessed as necrotic cells at 0.01 nM incubated for 48 hrs by Annexin V-FITC/PI staining based flow cytometric analysis (reference value: 0.07 %); format: functional
MV4-11 [16] = assay: Induction of apoptosis in human MV4-11 cells assessed as viable cells at 1 nM incubated for 48 hrs by Annexin V-FITC/PI staining based flow cytometric analysis (reference value: 94.80 %); format: functional; settings: read-out: Activity
MV4-11 [17] = assay: Induction of apoptosis in human MV4-11 cells assessed as viable cells at 0.1 nM incubated for 48 hrs by Annexin V-FITC/PI staining based flow cytometric analysis (reference value: 94.80 %); format: functional; settings: read-out: Activity
MV4-11 [18] = assay: Downregulation of CELF1 protein expression in human MV4-11 cells by proteomic analysis; format: functional, cell-based
Mus musculus [19] = assay: Upregulation of BRD4 expression in Balb/c nude mouse tumor xenografted with human MV4-11 cells at 20 mg/kg, ip administered once daily for 20 days by Western blot analysis; format: functional, organism-based; settings: time 20.0 day
SU-DHL-6 = assay: Antiproliferative activity against human SU-DHL-6 cells assessed as inhibition of cell growth incubated for 7 days by MTS reagent based assay; format: functional; settings: SU-DHL-6, 168 h
OCI-Ly10 [20] = assay: Antitumor activity against human OCI-Ly10 cells xenografted in Balb/c nude mouse assessed as relative tumor volume at 30 mg/kg, po administered once daily for 18 days (reference value: 9.07 +/- 4.66); format: functional; settings: time 18 day
[21] = target: T1, Protein cereblon/Bromodomain-containing protein 9; assay: PROTAC activity at CRBN/BRD9 in human MV4-11 cells assessed as induction of BRD9 degradation at 0.33 nM measured within 2 hrs by Western blot analysis; format: cell-based
Target sequence in this assay (Q96SW2 whole entry, looked up): as the sequence (Q96SW2 whole entry, looked up) above
Target sequence in this assay (Q9H8M2 whole entry, looked up): as the sequence (Q9H8M2 whole entry, looked up) above

MV4-11 [22] = assay: Induction of apoptosis in human MV4-11 cells assessed as necrotic cells at 1 nM incubated for 48 hrs by Annexin V-FITC/PI staining based flow cytometric analysis (reference value: 0.07 %); format: functional
MV4-11 [23] = assay: Antitumor activity against human MV4-11 cells xenografted in Balb/c nude mouse assessed as tumor volume at 20 mg/kg, ip administered once daily for 20 days (reference value: 1187 +/- 449 mm^3); format: functional; settings: time 20 day
[24] = target: T1, Protein cereblon/Bromodomain-containing protein 9; assay: PROTAC activity at CRBN/BRD9 in human MV4-11 cells assessed as induction of BRD9 degradation at 0.33 nM in presence of pomalidomide by Western blot analysis; format: cell-based
Target sequence in this assay (Q96SW2 whole entry, looked up): as the sequence (Q96SW2 whole entry, looked up) above
Target sequence in this assay (Q9H8M2 whole entry, looked up): as the sequence (Q9H8M2 whole entry, looked up) above

OCI-Ly10 [25] = assay: Antitumor activity against human OCI-Ly10 cells xenografted in Balb/c nude mouse assessed as tumor volume at 30 mg/kg, po administered once daily for 18 days (reference value: 561 +/- 370 mm^3); format: functional; settings: time 18 day
MV4-11 [26] = assay: Induction of apoptosis in human MV4-11 cells assessed as viable cells at 10 nM incubated for 48 hrs by Annexin V-FITC/PI staining based flow cytometric analysis (reference value: 94.80 %); format: functional; settings: read-out: Activity
[27] = target: T1, Protein cereblon/Bromodomain-containing protein 9; assay: PROTAC activity at CRBN/BRD9 in human MV4-11 cells assessed as induction of BRD9 degradation by measuring maximal efficacy by Western blot analysis relative to control; format: cell-based
Target sequence in this assay (Q96SW2 whole entry, looked up): as the sequence (Q96SW2 whole entry, looked up) above
Target sequence in this assay (Q9H8M2 whole entry, looked up): as the sequence (Q9H8M2 whole entry, looked up) above

MV4-11 [28] = assay: Induction of IKZF1 degradation in human MV4-11 cells at 1 to 100 nM by Western blot analysis; format: cell-based; settings: dose 1-100 nM
[29] = target: T1, Protein cereblon/Bromodomain-containing protein 9; assay: PROTAC activity at CRBN/BRD9 in human MV4-11 cells assessed as induction of BRD9 degradation by Western blot analysis; format: cell-based
[30] = target: T1, Protein cereblon/Bromodomain-containing protein 9; assay: PROTAC activity at CRBN/BRD9 in human MV4-11 cells assessed as induction of BRD9 degradation at 10 nM by Western blot analysis relative to control; format: cell-based
Target sequence in this assay (Q96SW2 whole entry, looked up): as the sequence (Q96SW2 whole entry, looked up) above
Target sequence in this assay (Q9H8M2 whole entry, looked up): as the sequence (Q9H8M2 whole entry, looked up) above

OCI-Ly10 [31] = assay: Antitumor activity against human OCI-Ly10 cells xenografted in Balb/c nude mouse assessed as tumor mass at 30 mg/kg, po administered once daily for 18 days (reference value: 1.12 +/- 0.44 g); format: functional; settings: time 18 day
OCI-Ly10 [32] = assay: Antiproliferative activity against human OCI-Ly10 cells assessed as inhibition of cell growth incubated for 7 days by MTS reagent based assay; format: functional; settings: OCI-Ly10, 168 h

## COc1cc(-c2cn(C)c(=O)c3ccccc23)cc(OC)c1CN1CCC(CN2CCC(c3ccc4c5c(cccc35)C(=O)N4C3CCC(=O)NC3=O)CC2)CC1 (stereo not given)
[1]
  Activity: Non-toxic
MV4-11 [2]
  Activity: 0.03%
[3]
  AUC(0-t) at 24 h: 1300 ng·h/mL
[4]
  Activity: Time-dependent-effect
MV4-11 [5]
  Activity: Active
Mus musculus [6]
  Activity: Active
MV4-11 [7]
  Activity: Active
MV4-11 [8]
  IC50: 0.27 nM
MV4-11 [9]
  Activity: inactive
MV4-11 [10]
  Activity: 3.37%
[11]
  Activity: Non-toxic
MOLM-13
  IC50: 0.37 nM
MV4-11 [12]
  Activity: 0.21%
OCI-Ly10 [13]
  T/C: ~40%
MV4-11 [14]
  Activity: Active
MV4-11 [15]
  Activity: 0.03%
MV4-11 [16]
  viability at 0.001 µM: 80.4%
MV4-11 [17]
  viability at 0.0001 µM: 87.4%
MV4-11 [18]
  Activity: Active
Mus musculus [19]
  Activity: Active
SU-DHL-6
  IC50: 375 nM
OCI-Ly10 [20]
  Activity: 4
[21]
  Activity: Active
MV4-11 [22]
  Activity: 0.06%
MV4-11 [23]
  Activity: 766 mm3
[24]
  Activity: inactive
OCI-Ly10 [25]
  Activity: 309 mm3
MV4-11 [26]
  viability at 0.01 µM: 74.8%
[27]
  Emax: 97%
MV4-11 [28]
  Activity: Active; Moderate Degradation Observed
[29]
  Activity: Dose-dependent-effect
  DC50: 0.016 nM
[30]
  Activity: 98.5%
OCI-Ly10 [31]
  Activity: 0.56 g
OCI-Ly10 [32]
  IC50: 1.04 nM

Source: ChEMBL document CHEMBL6096628, “Discovery of a Highly Potent and Selective BRD9 PROTAC Degrader Based on E3 Binder Investigation for the Treatment of Hematological Tumors” (J Med Chem, 2024)
